In ChEMBL document CHEMBL1121815, “Chemically reactive estrogens: synthesis and estrogen receptor interactions of hexestrol ether derivatives and 4-substituted deoxyhexestrol derivatives bearing alkylating functions” (J Med Chem, 1981):

Experiments:
[1] = target: T1, Estrogen receptor (Ovis aries) (UniProt P49885+Q9TU15); experiment: Binding affinity against estrogen receptor in lamb uterine cytosol, relative to that of [3H]estradiol; assay type: protein assay
[2] = target: T1, Estrogen receptor (Ovis aries); experiment: Inactivation of lamb uterine estrogen receptor; assay type: protein assay; parameters: concentration or dose not given beside the values
[3] = Half life was determined; assay type: ADME; settings: rat

| SMILES | Binding affinity [1] [%] | Inactivation [2] [%] | half-life [3] [min] |
| --- | --- | --- | --- |
| CC[C@H](c1ccc(O)cc1)[C@@H](CC)c1ccc(OCCO)cc1 | 21 |  |  |
| CC[C@H](c1ccc(O)cc1)[C@@H](CC)c1ccc(OCC(=O)O)cc1 | 0.12 |  |  |
| CC[C@H](c1ccc(O)cc1)[C@@H](CC)c1ccc(CCl)cc1 | 8 | 63 | 78 |
| CC[C@H](c1ccc(O)cc1)[C@@H](CC)c1ccc(S(=O)(=O)F)cc1 | 0.33 | 24 | 60 |
| CC[C@H](c1ccc(O)c(CCCO)c1)[C@@H](CC)c1ccc(O)cc1 | 12 |  |  |
| CC[C@H](c1ccc(O)cc1)[C@@H](CC)c1ccc(N)cc1 | 95 |  |  |
| CCOCc1ccc([C@H](CC)[C@H](CC)c2ccc(O)cc2)cc1 | 4.9 |  |  |
| CC[C@H](c1ccc(O)cc1)[C@@H](CC)c1ccc([N+](=O)[O-])cc1 | 11 |  |  |
| CC[C@H](c1ccc(O)cc1)[C@@H](CC)c1ccc(OCC(C)=O)cc1 | 11 |  |  |
| CC[C@H](c1ccc(O)cc1)[C@@H](CC)c1ccc(OCC2CO2)cc1 (stereo partly drawn) | 7.4 | 44 | 240 |
| CC[C@H](c1ccc(O)cc1)[C@@H](CC)c1ccc(OCCOCCCl)cc1 | 0.9 |  |  |
| CC[C@H](c1ccc(O)cc1)[C@@H](CC)c1ccc(C(=O)CBr)cc1 | 1.1 | 44 | < 30 |
| CC[C@H](c1ccc(O)cc1)[C@@H](CC)c1ccc(OCC(=O)CCl)cc1 | 10 | 31 | 15 |
| CCOC(=O)COc1ccc([C@H](CC)[C@H](CC)c2ccc(O)cc2)cc1 | 2.2 |  |  |
| CC[C@H](c1ccc(O)cc1)[C@@H](CC)c1ccc(OCC(O)CO)cc1 (stereo partly drawn) | 6.9 |  |  |
| CCOC(=N)c1ccc([C@H](CC)[C@H](CC)c2ccc(O)cc2)cc1 | 1.9 |  |  |
| CC[C@H](c1ccc(O)cc1)[C@@H](CC)c1ccc(OCC(O)CCl)cc1 (stereo partly drawn) | 4 | 24 | 30 |

| SMILES | Binding affinity [1] [%] | Inactivation [2] [%] | half-life [3] [min] |
| --- | --- | --- | --- |
| C=CCc1cc([C@@H](CC)[C@@H](CC)c2ccc(O)cc2)ccc1O | 54 |  |  |
| CC[C@H](c1ccc(O)cc1)[C@@H](CC)c1ccc(C(C)=O)cc1 | 4.1 |  |  |
| CC[C@H](c1ccc(O)cc1)[C@@H](CC)c1ccc(OCC(=O)C=[N+]=[N-])cc1 | 2 |  |  |
| CC[C@H](c1ccc(O)cc1)[C@@H](CC)c1ccc(C(=O)O)cc1 | 1.8 |  |  |
| CC[C@H](c1ccc(O)cc1)[C@@H](CC)c1ccc(C#N)cc1 | 5.2 |  |  |
| CC[C@H](c1ccc(O)cc1)[C@@H](CC)c1ccc(OCC(C)O)cc1 (stereo partly drawn) | 4.3 |  |  |
| CC[C@H](c1ccc(O)cc1)[C@@H](CC)c1ccc(CBr)cc1 | 9.3 | 70 | 150 |
| CCC(c1ccc(O)cc1)C(CC)c1ccc(OC)cc1 (stereo not drawn) | 17 |  |  |
| CC[C@H](c1ccc(O)cc1)[C@@H](CC)c1ccc(OC)cc1 | 19 |  |  |
| CC[C@H](c1ccc(O)cc1)[C@@H](CC)c1ccc(S(=O)(=O)N=[N+]=[N-])cc1 | 1.8 |  |  |
| CC[C@H](c1ccc(O)cc1)[C@@H](CC)c1ccc(OCC(O)CBr)cc1 (stereo partly drawn) | 3.2 | 36 | 30 |
| CC[C@H](c1ccc(O)cc1)[C@@H](CC)c1ccc(N=[N+]=[N-])cc1 | 5.7 |  |  |
| CC[C@H](c1ccc(O)cc1)[C@@H](CC)c1ccc(OCC(=O)CBr)cc1 | 9.5 | 24 | < 30 |
| CC[C@H](c1ccc(O)cc1)[C@@H](CC)c1ccc(C(=O)CCl)cc1 | 0.44 | 29 | 30 |
| CC[C@H](c1ccc(O)cc1)[C@@H](CC)c1ccc(CO)cc1 | 40 |  |  |
| C=CCOc1ccc([C@H](CC)[C@H](CC)c2ccc(O)cc2)cc1 | 5.4 |  |  |
